Test results from PubChem BioAssay AID248 (DTP/NCI, 2004).
“And” between values parts separate entries of the source, which are not always exact repeats. Equal entries are not always repeated. Inconclusive results and toxic doses are left out.

Tested on: L1210 leukemia ip in BDF1 mice, survival T/C
Assay: NCI In Vivo Anticancer Drug Screen. Data for tumor model L1210 Leukemia (intraperitoneal) in B6D2F1 (BDF1) mice
Conditions: higher = longer survival
How it was run: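 Value reflects the ratio of survival in compound-treated mice to survival in vehicle-treated controls, with both groups carrying the same transplanted tumor.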

[1] = endpoint: mean survival time, dose: 100.0 mg/kg/injection, schedule: Q01DX001 (ip), vehicle: saline
[2] = endpoint: mean survival time, dose: 100.0 mg/kg/injection, schedule: Q04DX003 (ip), vehicle: saline
[3] = endpoint: mean survival time, dose: 200.0 mg/kg/injection, schedule: Q01DX001 (ip), vehicle: saline
[4] = endpoint: mean survival time, dose: 100.0 mg/kg/injection, schedule: Q04DX002 (ip), vehicle: saline
[5] = endpoint: mean survival time, dose: 200.0 mg/kg/injection, schedule: Q04DX002 (ip), vehicle: saline
[6] = endpoint: mean survival time, dose: 400.0 mg/kg/injection, schedule: Q04DX002 (ip), vehicle: saline
[7] = endpoint: mean survival time, dose: 100.0 mg/kg/injection, schedule: Q01DX009 (ip), vehicle: saline with Tween-80
[8] = endpoint: mean survival time, dose: 200.0 mg/kg/injection, schedule: Q01DX009 (ip), vehicle: saline with Tween-80
[9] = endpoint: mean survival time, dose: 100.0 mg/kg/injection, schedule: Q04DX003 (ip), vehicle: saline with Tween-80
[10] = endpoint: mean survival time, dose: 200.0 mg/kg/injection, schedule: Q04DX003 (ip), vehicle: saline with Tween-80
[11] = endpoint: mean survival time, dose: 400.0 mg/kg/injection, schedule: Q01DX001 (ip), vehicle: saline
[12] = endpoint: mean survival time, dose: 100.0 mg/kg/injection, schedule: Q04DX002 (ip), vehicle: Klucel (hydroxypropylcellulose) (HPC)
[13] = endpoint: mean survival time, dose: 200.0 mg/kg/injection, schedule: Q04DX002 (ip), vehicle: Klucel (hydroxypropylcellulose) (HPC)
[14] = endpoint: mean survival time, dose: 400.0 mg/kg/injection, schedule: Q04DX002 (ip), vehicle: Klucel (hydroxypropylcellulose) (HPC)
[15] = endpoint: mean survival time, dose: 400.0 mg/kg/injection, schedule: Q01DX009 (ip), vehicle: saline with Tween-80
[16] = endpoint: mean survival time, dose: 400.0 mg/kg/injection, schedule: Q04DX003 (ip), vehicle: saline with Tween-80

Nc1c(S(=O)(=O)O)cc(Nc2cccc(CO)c2)c2c1C(=O)c1ccccc1C2=O
T/C (endpoint: mean survival time, dose: 5.0 mg/kg/injection, schedule: Q01DX001 (ip), vehicle: saline): 105 % of control | T/C (endpoint: mean survival time, dose: 10.0 mg/kg/injection, schedule: Q01DX001 (ip), vehicle: saline): 103 % of control | T/C (endpoint: mean survival time, dose: 20.0 mg/kg/injection, schedule: Q01DX001 (ip), vehicle: saline): 101 % of control | T/C (endpoint: mean survival time, dose: 40.0 mg/kg/injection, schedule: Q01DX001 (ip), vehicle: saline): 94 % of control | T/C (endpoint: mean survival time, dose: 80.0 mg/kg/injection, schedule: Q01DX001 (ip), vehicle: saline): 95 % of control | T/C [1]: 95 % of control | T/C [2]: 101 % of control | T/C [3]: 93 % of control | T/C (endpoint: mean survival time, dose: 200.0 mg/kg/injection, schedule: Q04DX003 (ip), vehicle: saline): 104 % of control | T/C (endpoint: mean survival time, dose: 400.0 mg/kg/injection, schedule: Q04DX003 (ip), vehicle: saline): 92 % of control

C=C1c2ccccc2N(C)C1(COc1ccc(Cl)cc1)OC(=O)c1cccc(Cl)c1 (configuration not stated)
T/C [4]: 88 % of control | T/C [5]: 98 % of control | T/C [6]: 98 % of control

CC[n+]1cccc(NC(=O)c2ccc(NC(=O)c3ccc(C(=O)Nc4ccc5c(ccc[n+]5CC)c4)cc3)cc2)c1
T/C (endpoint: mean survival time, dose: 0.12 mg/kg/injection, schedule: Q01DX015 (oral), vehicle: alkali diluted with saline): 90 % of control | T/C (endpoint: mean survival time, dose: 0.25 mg/kg/injection, schedule: Q01DX015 (oral), vehicle: alkali diluted with saline): 90 % of control | T/C (endpoint: mean survival time, dose: 0.5 mg/kg/injection, schedule: Q01DX015 (oral), vehicle: alkali diluted with saline): 101 % of control | T/C (endpoint: mean survival time, dose: 0.55 mg/kg/injection, schedule: Q01DX Z (ip), vehicle: carboxymethylcellulose (CMC)): 107 % of control | T/C (endpoint: mean survival time, dose: 1.0 mg/kg/injection, schedule: Q01DX015 (oral), vehicle: alkali diluted with saline): 112 % of control | T/C (endpoint: mean survival time, dose: 2.2 mg/kg/injection, schedule: Q01DX Z (ip), vehicle: carboxymethylcellulose (CMC)): 181 % of control | T/C (endpoint: mean survival time, dose: 3.0 mg/kg/injection, schedule: Q01DX015 (ip), vehicle: alkali diluted with saline): 164 % of control | T/C (endpoint: mean survival time, dose: 4.4 mg/kg/injection, schedule: Q01DX Z (ip), vehicle: carboxymethylcellulose (CMC)): 165 % of control | T/C (endpoint: mean survival time, dose: 6.0 mg/kg/injection, schedule: Q01DX015 (ip), vehicle: alkali diluted with saline): 120 % of control | T/C (endpoint: mean survival time, dose: 10.0 mg/kg/injection, schedule: Q01DX Z (ip), vehicle: carboxymethylcellulose (CMC)): 113 % of control | T/C (endpoint: mean survival time, dose: 11.0 mg/kg/injection, schedule: Q01DX001 (ip), vehicle: alkali diluted with saline): 118 % of control | T/C (endpoint: mean survival time, dose: 15.0 mg/kg/injection, schedule: Q01DX Z (ip), vehicle: carboxymethylcellulose (CMC)): 110 % of control | T/C (endpoint: mean survival time, dose: 16.0 mg/kg/injection, schedule: Q01DX001 (ip), vehicle: alkali diluted with saline): 150 % of control | T/C (endpoint: mean survival time, dose: 25.0 mg/kg/injection, schedule: Q01DX015 (ip), vehicle: alkali diluted with saline): 102 % of control

CC1=NCCC[N-]CC[N-]CCCN=C1C.[Ni+2].[O-][Cl+3]([O-])([O-])O
T/C [4]: 94 % of control | T/C [5]: 94 % of control | T/C [6]: 98 % of control

COc1ccc2c(c1OC)CCCCC2=O
T/C (endpoint: mean survival time, dose: 50.0 mg/kg/injection, schedule: Q01DX009 (ip), vehicle: saline with Tween-80): 102 % of control | T/C [7]: 98 % of control | T/C [8]: 91 % of control

Cc1cc(Cl)c(=O)n(-c2ccc(Cl)cc2)n1
T/C (endpoint: mean survival time, dose: 50.0 mg/kg/injection, schedule: Q04DX003 (ip), vehicle: saline with Tween-80): 109 % of control | T/C [9]: 103 % of control | T/C [10]: 98 % of control

CCOC(=O)/C(=C\C(C(=O)OCC)C(=O)OCC)CC
T/C [1]: 106 % of control | T/C [3]: 103 % of control | T/C [11]: 95 % of control

O=C(Nc1cccc2ccccc12)c1cccc([N+](=O)[O-])c1C(=O)O
T/C [12]: 99 % of control | T/C [13]: 92 % of control | T/C [14]: 96 % of control

Cc1cc(=O)[nH]c2ccc(Cc3ccc(N)cc3)cc12
T/C (endpoint: mean survival time, dose: 100.0 mg/kg/injection, schedule: Q01DX001 (ip), vehicle: carboxymethylcellulose (CMC)): 95 % of control | T/C (endpoint: mean survival time, dose: 200.0 mg/kg/injection, schedule: Q01DX001 (ip), vehicle: carboxymethylcellulose (CMC)): 96 % of control | T/C (endpoint: mean survival time, dose: 400.0 mg/kg/injection, schedule: Q01DX001 (ip), vehicle: carboxymethylcellulose (CMC)): 98 % of control

Cc1cc(Cl)ccc1NC(=O)c1ccc(Cl)c(Cl)c1
T/C [7]: 88 % of control | T/C [9]: 100 % of control | T/C [8]: 93 % of control | T/C [10]: 96 % of control | T/C [15]: 93 % of control | T/C [16]: 94 % of control

C=CCOC(=S)S
T/C [1]: 95 % of control | T/C [3]: 94 % of control

CCC(=O)C(CC)c1cccc(OC)c1 (configuration not stated)
T/C [7]: 100 % of control | T/C [9]: 100 % of control | T/C [8]: 94 % of control | T/C [10]: 97 % of control | T/C [15]: 114 % of control | T/C [16]: 97 % of control

Cc1nc2nc(N)nc(N)c2nc1CN(C)c1ccc(C(=O)NC(CCC(=O)O)C(=O)O)cc1 (configuration not stated)
T/C (endpoint: median survival time, dose: 0.39 mg/kg/injection, schedule: Q01DX009 (ip), vehicle: other): 100 % of control | T/C (endpoint: median survival time, dose: 0.65 mg/kg/injection, schedule: Q01DX009 (ip), vehicle: other): 100 % of control | T/C (endpoint: median survival time, dose: 1.08 mg/kg/injection, schedule: Q01DX009 (ip), vehicle: other): 100 % of control | T/C (endpoint: median survival time, dose: 1.8 mg/kg/injection, schedule: Q01DX009 (ip), vehicle: other): 100 % of control and 90 % of control | T/C (endpoint: median survival time, dose: 5.0 mg/kg/injection, schedule: Q01DX009 (ip), vehicle: other): 90 % of control | T/C (endpoint: median survival time, dose: 14.0 mg/kg/injection, schedule: Q01DX009 (ip), vehicle: other): 100 % of control | T/C (endpoint: median survival time, dose: 39.0 mg/kg/injection, schedule: Q01DX009 (ip), vehicle: other): 100 % of control | T/C (endpoint: median survival time, dose: 108.0 mg/kg/injection, schedule: Q01DX009 (ip), vehicle: other): 100 % of control | T/C (endpoint: median survival time, dose: 180.0 mg/kg/injection, schedule: Q01DX009 (ip), vehicle: other): 110 % of control | T/C (endpoint: median survival time, dose: 300.0 mg/kg/injection, schedule: Q01DX009 (ip), vehicle: other): 100 % of control

CCOC(=O)c1ccc(NC(=O)Nc2ccccc2Cl)cc1
T/C [7]: 93 % of control | T/C [9]: 91 % of control | T/C [8]: 87 % of control | T/C [10]: 93 % of control | T/C [15]: 92 % of control | T/C [16]: 94 % of control

COC(=O)C(CCC(=O)OC(C)(C)C)NC(=O)C(F)(F)F (configuration not stated)
T/C (endpoint: mean survival time, dose: 50.0 mg/kg/injection, schedule: Q01DX001 (ip), vehicle: Klucel (hydroxypropylcellulose) (HPC)): 94 % of control | T/C (endpoint: mean survival time, dose: 100.0 mg/kg/injection, schedule: Q01DX001 (ip), vehicle: Klucel (hydroxypropylcellulose) (HPC)): 100 % of control | T/C (endpoint: mean survival time, dose: 200.0 mg/kg/injection, schedule: Q01DX001 (ip), vehicle: Klucel (hydroxypropylcellulose) (HPC)): 97 % of control

Cc1cc(NCC2CCNCC2)nc(/N=C(\N)Nc2ccc(Cl)c(Cl)c2)n1
T/C (endpoint: mean survival time, dose: 12.5 mg/kg/injection, schedule: Q04DX003 (ip), vehicle: saline): 102 % of control | T/C (endpoint: mean survival time, dose: 25.0 mg/kg/injection, schedule: Q04DX003 (ip), vehicle: saline): 113 % of control | T/C (endpoint: mean survival time, dose: 50.0 mg/kg/injection, schedule: Q04DX003 (ip), vehicle: saline): 102 % of control | T/C [2]: 106 % of control

Cc1ccc(N=Cc2cc(Cl)cc(Cl)c2OC(=O)c2ccccc2)cc1Cl
T/C [12]: 94 % of control | T/C [13]: 111 % of control | T/C [14]: 97 % of control

NC(=O)C(CCO)n1ccc(N)nc1=O (configuration not stated)
T/C [1]: 94 % of control | T/C [3]: 98 % of control | T/C [11]: 102 % of control

CNCCC(=O)NCC1C(c2ccccc2)C1c1ccccc1 (configuration not stated)
T/C (endpoint: mean survival time, dose: 6.25 mg/kg/injection, schedule: Q04DX002 (ip), vehicle: saline with Tween-80): 97 % of control | T/C (endpoint: mean survival time, dose: 12.5 mg/kg/injection, schedule: Q04DX002 (ip), vehicle: saline with Tween-80): 93 % of control and 96 % of control | T/C (endpoint: mean survival time, dose: 25.0 mg/kg/injection, schedule: Q04DX002 (ip), vehicle: saline with Tween-80): 100 % of control | T/C (endpoint: mean survival time, dose: 50.0 mg/kg/injection, schedule: Q04DX002 (ip), vehicle: saline with Tween-80): 91 % of control | T/C (endpoint: mean survival time, dose: 100.0 mg/kg/injection, schedule: Q04DX002 (ip), vehicle: saline with Tween-80): 93 % of control and 88 % of control

CC/C=C(\CC(=O)OCC)C(=O)OCC
T/C [7]: 101 % of control | T/C [8]: 96 % of control | T/C [15]: 92 % of control

CC(=O)CC(=O)CCc1ccccc1.CC(=O)CC(=O)CCc1ccccc1.[Cu]
T/C (endpoint: mean survival time, dose: 75.0 mg/kg/injection, schedule: Q01DX001 (ip), vehicle: carboxymethylcellulose (CMC)): 91 % of control
